# Reference: patent US9283222B2 (priority 2006, dated 2016)
# Read-outs that look alike come from different tables or passages of the source.
# Target: Recombinant Human Poly(ADP-Ribose) Polymerase (PARP), PARP-1 (Homo sapiens (Human), UniProt P09874)
# Details: read-out: PARP-1 (Ki)
# [1] = Table 1, text calls the values EC50s
# Recombinant Human Poly(ADP-Ribose) Polymerase (PARP), PARP-1, sequence (P09874 whole entry): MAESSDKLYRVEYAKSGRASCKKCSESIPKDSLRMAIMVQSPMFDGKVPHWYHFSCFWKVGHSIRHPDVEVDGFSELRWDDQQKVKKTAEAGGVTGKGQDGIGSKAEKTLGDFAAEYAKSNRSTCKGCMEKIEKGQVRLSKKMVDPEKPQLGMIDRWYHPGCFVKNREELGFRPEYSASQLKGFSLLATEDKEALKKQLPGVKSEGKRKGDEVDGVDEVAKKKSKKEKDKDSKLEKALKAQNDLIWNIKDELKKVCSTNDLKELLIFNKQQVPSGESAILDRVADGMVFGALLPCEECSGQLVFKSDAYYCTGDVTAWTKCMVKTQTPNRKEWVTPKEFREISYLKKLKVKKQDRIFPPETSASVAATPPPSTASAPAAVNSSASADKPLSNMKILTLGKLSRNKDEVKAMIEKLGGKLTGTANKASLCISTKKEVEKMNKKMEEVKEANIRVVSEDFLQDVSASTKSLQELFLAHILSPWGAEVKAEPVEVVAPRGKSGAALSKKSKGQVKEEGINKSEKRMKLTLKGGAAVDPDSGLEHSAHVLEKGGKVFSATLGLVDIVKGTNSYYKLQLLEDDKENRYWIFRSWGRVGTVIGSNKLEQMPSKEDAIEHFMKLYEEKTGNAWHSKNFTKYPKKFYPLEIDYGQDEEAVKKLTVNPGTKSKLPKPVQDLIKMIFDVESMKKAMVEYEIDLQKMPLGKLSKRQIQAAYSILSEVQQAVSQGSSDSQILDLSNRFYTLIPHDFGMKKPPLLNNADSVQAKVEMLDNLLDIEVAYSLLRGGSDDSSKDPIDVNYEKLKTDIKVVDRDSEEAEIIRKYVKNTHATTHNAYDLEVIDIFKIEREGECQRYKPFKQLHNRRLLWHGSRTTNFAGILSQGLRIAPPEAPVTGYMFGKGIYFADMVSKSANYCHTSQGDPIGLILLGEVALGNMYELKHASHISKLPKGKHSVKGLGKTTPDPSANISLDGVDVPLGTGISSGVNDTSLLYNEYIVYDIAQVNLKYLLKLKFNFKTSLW
SMILES,Ki [1],"Ki (Table 3, H analogs versus para-F analogs)"
"CN(C(=O)c1cc(Cc2n[nH]c(=O)c3c2NCCC3)ccc1F)C1CCN(C(=O)[C@@H]2CSCN2)CC1 [Example 716, 2-fluoro-N-methyl-5-[(5-oxo-1,2,3,4,5,6-hexahydropyrido[2,3-d]pyridazin-8-yl)methyl]-N-{1-[(4R)-1,3-thiazolidin-4-ylcarbonyl]piperidin-4-yl}benzamide]",5 nM,
"O=C(Nc1cccc(Cc2n[nH]c(=O)c3c2CCCC3)c1)c1ccc(I)cc1 [Example 247, 4-iodo-N-(3-((4-oxo-3,4,5,6,7,8-hexahydrophthalazin-1-yl)methyl)phenyl)benzamide]",48 nM,
"O=C(c1cnccn1)N1CCN(C(=O)c2cc(Cc3n[nH]c(=O)c4c3NCCC4)ccc2F)CC1 [Example 662, 8-(4-fluoro-3-{[4-(pyrazin-2-ylcarbonyl)piperazin-1-yl]carbonyl}benzyl)-2,3,4,6-tetrahydropyrido[2,3-d]pyridazin-5(1H)-one]",1.5 nM,
CCCC(=O)Nc1ccc(Cl)c(Cc2n[nH]c(=O)c3c2CCCC3)c1 [Example 99],44 nM,
"O=C(c1cc(Cc2n[nH]c(=O)c3c2CCCC3)ccc1F)N1CCN(CCOc2ccccc2)CC1 [Example 577, 4-(4-fluoro-3-{[4-(2-phenoxyethyl)piperazin-1-yl]carbonyl}benzyl)-5,6,7,8-tetrahydrophthalazin-1(2H)-one]",3 nM,
"O=C(Nc1cccc(Cc2n[nH]c(=O)c3c2CCCC3)c1)c1cccs1 [Example 196, N-(3-((4-oxo-3,4,5,6,7,8-hexahydrophthalazin-1-yl)methyl)phenyl)thiophene-2-carboxamide]",286 nM,
"CC(=O)N1CCN(C(=O)c2cccc(Cc3n[nH]c(=O)c4c3CCCC4)c2)CC1 [Example 438, 4-(3-((4-acetylpiperazin-1-yl)carbonyl)benzyl)-5,6,7,8-tetrahydrophthalazin-1(2H)-one]",3 nM,
"CN(C)c1ccc(NC(=O)c2cccc(Cc3n[nH]c(=O)c4c3CCCC4)c2)cc1 [Example 58, N-(4-(dimethylamino)phenyl)-3-((4-oxo-3,4,5,6,7,8-hexahydrophthalazin-1-yl)methyl)benzamide]",51 nM,
O=C(c1cccc(Cc2n[nH]c(=O)c3c2CCCC3)c1)N1CCN(c2ccccc2F)CC1 [drawing 38],,4 nM
"O=C(CCCc1cccs1)Nc1cccc(Cc2n[nH]c(=O)c3c2CCCC3)c1 [Example 154, N-(3-((4-oxo-3,4,5,6,7,8-hexahydrophthalazin-1-yl)methyl)phenyl)-4-thien-2-ylbutanamide]",56 nM,
"O=C(Nc1cccc(Cc2n[nH]c(=O)c3c2CCCC3)c1)c1ccc2ccccc2c1 [Example 231, N-(3-((4-oxo-3,4,5,6,7,8-hexahydrophthalazin-1-yl)methyl)phenyl)-2-naphthamide]",110 nM,
"COc1ccc(Cc2n[nH]c(=O)c3c2CCCC3)cc1N [Example 279, 4-(3-amino-4-methoxybenzyl)-5,6,7,8-tetrahydrophthalazin-1(2H)-one]",467 nM,
"O=C(OCc1ccccc1)N1CCCN(C(=O)c2cc(Cc3n[nH]c(=O)c4c3CCCC4)ccc2F)CC1 [Example 544, benzyl 4-{2-fluoro-5-[(4-oxo-3,4,5,6,7,8-hexahydrophthalazin-1-yl)methyl]benzoyl}-1,4-diazepane-1-carboxylate]",4 nM,
"COc1ccc(C(=O)Nc2cccc(Cc3n[nH]c(=O)c4c3CCCC4)c2)cc1F [Example 229, 3-fluoro-4-methoxy-N-(3-((4-oxo-3,4,5,6,7,8-hexahydrophthalazin-1-yl)methyl)phenyl)benzamide]",49 nM,
"O=C(c1cc[nH]n1)N1CCN(C(=O)c2cc(Cc3n[nH]c(=O)c4c3CCCC4)ccc2F)CC1 [Example 678, 4-(4-fluoro-3-{[4-(1H-pyrazol-3-ylcarbonyl)piperazin-1-yl]carbonyl}benzyl)-5,6,7,8-tetrahydrophthalazin-1(2H)-one]",1.1 nM,
"O=c1[nH]nc(Cc2cccc(NS(=O)(=O)c3ccco3)c2)c2c1CCCC2 [Example 118, N-(3-((4-oxo-3,4,5,6,7,8-hexahydrophthalazin-1-yl)methyl)phenyl)furan-2-sulfonamide]",2030 nM,
"NC(=O)C1CCCN(C(=O)c2cc(Cc3n[nH]c(=O)c4c3NCCC4)ccc2F)C1 (stereo not shown) [Example 519, 1-{2-fluoro-5-[(5-oxo-1,2,3,4,5,6-hexahydropyrido[2,3-d]pyridazin-8-yl)methyl]benzoyl}piperidine-3-carboxamide]",5 nM,
"CCOCCC(=O)Nc1cccc(Cc2n[nH]c(=O)c3c2CCCC3)c1 [Example 138, 3-ethoxy-N-(3-((4-oxo-3,4,5,6,7,8-hexahydrophthalazin-1-yl)methyl)phenyl)propanamide]",22 nM,
"O=C(NCCc1ccc(-c2ccccc2)cc1)c1cccc(Cc2n[nH]c(=O)c3c2CCCC3)c1 [Example 393, N-(2-(1,1′-biphenyl-4-yl)ethyl)-3-((4-oxo-3,4,5,6,7,8-hexahydrophthalazin-1-yl)methyl)benzamide]",70 nM,
"CCN1CCN(C(=O)c2cc(Cc3n[nH]c(=O)c4c3CCCC4)ccc2F)CC1 [Example 580, 4-{3-[(4-ethylpiperazin-1-yl)carbonyl]-4-fluorobenzyl}-5,6,7,8-tetrahydrophthalazin-1(2H)-one]",1.8 nM,
"O=C(c1cnc2ccccc2c1)N1CCN(C(=O)c2cc(Cc3n[nH]c(=O)c4c3NCCC4)ccc2F)CC1 [Example 657, 8-(4-fluoro-3-{[4-(quinolin-3-ylcarbonyl)piperazin-1-yl]carbonyl}benzyl)-2,3,4,6-tetrahydropyrido[2,3-d]pyridazin-5(1H)-one]",0.8 nM,
"CN(CC1CCCCN1C)C(=O)c1cccc(Cc2n[nH]c(=O)c3c2CCCC3)c1 (stereo not shown) [Example 78, N-methyl-N-((1-methylpiperidin-2-yl)methyl)-3-((4-oxo-3,4,5,6,7,8-hexahydrophthalazin-1-yl)methyl)benzamide]",165 nM,
"O=C(NCCc1c[nH]c2ccccc12)c1cccc(Cc2n[nH]c(=O)c3c2CCCC3)c1 [Example 318, N-(2-(1H-indol-3-yl)ethyl)-3-((4-oxo-3,4,5,6,7,8-hexahydrophthalazin-1-yl)methyl)benzamide]",28 nM,
"O=c1[nH]nc(CC2CNCCN2)c2c1CCCC2 (stereo not shown) [Example 261, 4-(piperazin-2-ylmethyl)-5,6,7,8-tetrahydrophthalazin-1(2H)-one]",556 nM,
"CC1CCCN1C(=O)c1cccc(Cc2n[nH]c(=O)c3c2CCCC3)c1 (stereo not shown) [Example 53, 4-(3-((2-methylpyrrolidin-1-yl)carbonyl)benzyl)-5,6,7,8-tetrahydrophthalazin-1(2H)-one]",10 nM,
"CCc1ccc(C(=O)Nc2cccc(Cc3n[nH]c(=O)c4c3CCCC4)c2)cc1 [Example 177, 4-ethyl-N-(3-((4-oxo-3,4,5,6,7,8-hexahydrophthalazin-1-yl)methyl)phenyl)benzamide]",156 nM,
"O=C(NCC1CCCCN1)c1cccc(Cc2n[nH]c(=O)c3c2CCCC3)c1 (stereo not shown) [Example 62, 3-((4-oxo-3,4,5,6,7,8-hexahydrophthalazin-1-yl)methyl)-N-(piperidin-2-ylmethyl)benzamide]",42 nM,
"CC(=O)N(C)C1CCN(C(=O)c2cc(Cc3n[nH]c(=O)c4c3NCCC4)ccc2F)C1 (stereo not shown) [Example 595, N-(1-{2-fluoro-5-[(5-oxo-1,2,3,4,5,6-hexahydropyrido[2,3-d]pyridazin-8-yl)methyl]benzoyl}pyrrolidine-3-yl)-N-methylacetamide]",6 nM,
